Here are results for 19 compounds from patent US5783575A, “Antagonists, their preparation and use” (Novo Nordisk A/S, priority 1994, dated 1998).

Data set [1] addresses T1, mGluR1a (Rattus norvegicus, UniProt P23385).
T1 construct: expressed in transfected cells; host or cells: BHK 570 (baby hamster kidney) cells
As to the kind of experiment: Inhibition of PI-hydrolysis in BHK 570 cells expressing mGluR1a receptors (antagonist activity vs 10 μM glutamate). Format: cell-based.

Data set [2] relates to metabotropic glutamate receptor at the subtypes mGluR1 and mGluR5. Particulars: Thomsen and Suzdak 1993; cited from earlier work.
A further data set concerns NMDA-induced responses. Particulars: a number of preparations; cited from earlier work.
For data set [3], the target named is T1, mGluR1a. Particulars: BHK cells expressing mGluR1a, Thomsen and Suzdak 1993; cited from earlier work.
Data set [4] deals with T1, mGluR1a. The note with it: competitive antagonist, Thomsen and Suzdak 1993; cited from earlier work.
Data set [5] relates to metabotropic glutamate receptor. The note with it: cited from earlier work.
The test system of a further data set is mGluR1α. Particulars: 1 mM, BHK cells expressing mGluR1α; cited from earlier work.
The next data set concerns control BHK cells. The note with it: 1 mM; cited from earlier work.
For data set [6], the target named is T1, mGluR1a. As to the kind of experiment: [3H]Glutamate binding to mGluR1a. Particulars: BHK cells expressing mGluR1a. How it is done:
Membranes prepared from BHK cells expressing mGluR1a were prepared as described (Thomsen, C. et al. (1993), Brain Res. 619, 22-28). […] IC50 values were calculated by a non-linear regression analysis using the GraphPad-Prism program (I.S.I., Philadelphia). Inhibitory constants (Ki) were calculated from the IC50 values using the equation: […]

Another data set addresses KAIN. The experiment in a line: Affinity for KAIN receptor (Table 3). Format: binding.
Data set [7] deals with T1, mGluR1a. As to the kind of experiment: Testing for non competitiveness: mGluR1a-mediated PI-hydrolysis, glutamate dose-response with and without antagonist. The note with it: for effect on maximal response for glutamate / effect on the potency of glutamate / pharmacological profile: BHK cells expressing mGluR1a; for Emax: basal subtracted. Format: cell-based.
For a further data set, the target named is Bz. The experiment in a line: Affinity for Bz receptor (Table 3). Format: binding.
For a further data set, the target named is AMPA. The experiment in a line: Affinity for AMPA receptor (Table 3). Format: binding.
A further data set concerns the target CPP. The experiment in a line: Affinity for CPP receptor (Table 3). Format: binding.
In a further data set the target is TCP. The experiment in a line: Affinity for TCP receptor (Table 3). Type of data set: binding.
The target of a further data set is CNQX. The experiment in a line: Affinity for CNQX receptor (Table 3). Type of data set: binding.
A further data set has as its system nerve cell cultures. The note with it: Koh et al. 1991; cited from earlier work.
Another data set relates to MCAO model in mice. Particulars: Chiamulera et al. 1992; cited from earlier work.
Data set [8] concerns release of dopamine in the rat brain. The note with it: Sacaan et al. 1992; cited from earlier work.
The next data set concerns GABAA. Particulars: neurones, nucleus of the Solitary tract; cited from earlier work.
The test system of a further data set is currents evoked by AMPA. The note with it: neurones, nucleus of the Solitary tract; cited from earlier work.
In data set [9] the test system is responses evoked by the ionotropic glutamate receptor agonist, AMPA. The note with it: Mori-Okamoto et al. 1993; cited from earlier work.
In the next data set the test system is mGluR1/mGluR5. The note with it: Mori-Okamoto et al. 1993; cited from earlier work.
Setting [10] is: read-out: response to glutamate relative to the maximal response evoked by 300 μM glutamate, antagonist 10 μM, glutamate 0.
[11] abbreviates: read-out: response to glutamate relative to the maximal response evoked by 300 μM glutamate, antagonist 10 μM, glutamate 3.
The mark [12] stands for this setting: read-out: response to glutamate relative to the maximal response evoked by 300 μM glutamate, antagonist 10 μM, glutamate 10.
Where [13] appears, read: read-out: response to glutamate relative to the maximal response evoked by 300 μM glutamate, antagonist 10 μM, glutamate 30.
[14] abbreviates: read-out: response to glutamate relative to the maximal response evoked by 300 μM glutamate, antagonist 10 μM, glutamate 100.
[15] abbreviates: read-out: response to glutamate relative to the maximal response evoked by 300 μM glutamate, antagonist 10 μM, glutamate 300.

Read-outs that look alike come from different tables or passages of the source.

T1 sequence (P23385 19-1199): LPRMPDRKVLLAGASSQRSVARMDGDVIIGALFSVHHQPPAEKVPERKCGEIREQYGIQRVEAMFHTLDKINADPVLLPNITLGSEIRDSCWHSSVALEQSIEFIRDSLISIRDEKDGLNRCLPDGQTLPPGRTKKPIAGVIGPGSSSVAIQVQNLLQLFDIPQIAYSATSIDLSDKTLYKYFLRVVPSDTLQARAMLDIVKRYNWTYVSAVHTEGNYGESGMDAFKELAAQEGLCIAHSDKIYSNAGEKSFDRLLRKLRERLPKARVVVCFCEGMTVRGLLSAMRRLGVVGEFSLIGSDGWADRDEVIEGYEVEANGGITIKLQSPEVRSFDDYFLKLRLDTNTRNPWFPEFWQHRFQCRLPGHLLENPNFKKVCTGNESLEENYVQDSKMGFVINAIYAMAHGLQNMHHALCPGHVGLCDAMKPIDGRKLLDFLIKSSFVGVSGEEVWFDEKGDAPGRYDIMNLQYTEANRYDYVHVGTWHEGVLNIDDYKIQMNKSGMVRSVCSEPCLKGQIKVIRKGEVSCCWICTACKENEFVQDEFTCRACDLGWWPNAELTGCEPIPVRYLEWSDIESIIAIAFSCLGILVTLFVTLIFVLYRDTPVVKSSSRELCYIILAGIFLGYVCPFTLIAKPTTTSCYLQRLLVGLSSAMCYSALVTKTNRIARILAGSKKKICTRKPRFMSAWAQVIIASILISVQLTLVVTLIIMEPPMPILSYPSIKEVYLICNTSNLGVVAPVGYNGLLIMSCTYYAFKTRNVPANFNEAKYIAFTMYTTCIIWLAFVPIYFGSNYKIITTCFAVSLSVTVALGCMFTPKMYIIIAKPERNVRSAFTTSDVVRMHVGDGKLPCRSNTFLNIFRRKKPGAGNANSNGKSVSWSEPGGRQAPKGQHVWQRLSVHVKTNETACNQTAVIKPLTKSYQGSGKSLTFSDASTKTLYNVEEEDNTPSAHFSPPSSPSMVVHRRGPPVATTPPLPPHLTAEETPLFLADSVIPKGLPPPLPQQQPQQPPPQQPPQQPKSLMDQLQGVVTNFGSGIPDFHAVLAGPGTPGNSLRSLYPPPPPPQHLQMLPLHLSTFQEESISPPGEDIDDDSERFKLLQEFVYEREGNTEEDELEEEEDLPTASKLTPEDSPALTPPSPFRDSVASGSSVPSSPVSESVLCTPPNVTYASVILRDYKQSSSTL

What is called IC50 is the point on the concentration scale where inhibition reaches its midpoint. Lower therefore signals higher potency. In turn, `c1ccc(Cn2c3ccccc3c3cc(-c4nnn[nH]4)sc32)cc1` [Compound 25, 8-Benzyl-2-(5-tetrazolyl)thieno[2,3-b]indole] returned an IC50 against mGluR1a [1] of 9 µM.

On to `C[C@@](N)(C(=O)O)c1ccc(C(=O)O)cc1` [S-MCPG, S-alpha-methyl-4-carboxyphenyl glycine], for which the “antagonism of trans ACPD stimulated phosphoinositide hydrolysis” value in [2] is listed as “antagonise trans ACPD stimulated phosphoinositide hydrolysis”.

As to `N[C@@]1(C(=O)O)CC[C@@H](C(=O)O)C1` (relative stereo) [(±)-trans-ACPD], in the data set on NMDA-induced responses, the “effect on NMDA-induced responses” value is “enhanced”.

For `NC(C(=O)O)c1ccc(C(=O)O)c(O)c1` (stereo not shown) [4-carboxy-3-hydroxyphenylglycine], at mGluR1a [3], the “effect on maximal response to glutamate” value is “not affected” and the “effect on potency of glutamate to stimulate PI-hydrolysis” value is reported as “decreased”. Moreover, the “displacement of [3H]glutamate binding” value on mGluR1a [4] was “displaced [^3 H]glutamate binding from mGluR1a with an affinity which was similar to the functional antagonist potency”.

Consider `N[C@@H](Cn1oc(=O)[nH]c1=O)C(=O)O` [quisqualate], for which the “agonism on the metabotropic glutamate receptor” value in data set [5] was “non-selective agonists”. The “increase over basal PI-hydrolysis” value with mGluR1α is reported as 6-8 fold. The “stimulation of PI-hydrolysis” value with control BHK cells is reported as “no stimulation”.

On mGluR1a [1], `CCOC(=O)C(C#N)=Cc1c(Cl)n(Cc2ccccc2)c2ccccc12` [Compound 1a, Ethyl 2-cyano-3-(1-benzyl-2-chloro-3-indolyl)acrylate] came in with a half-inhibitory concentration (IC50) of 2.2 µM.

For the compound `O=C(O)c1cc2c3ccccc3n(Cc3ccccc3)c2s1` [Compound 8, 8-Benzylthieno[2,3-b]indole-2-carboxylic acid], the IC50 at mGluR1a [1] was 21 µM; at KAIN, 870 µM; against Bz it was 471 µM; against AMPA, more than 980 µM; against CPP, 300 µM; on TCP it was more than 980 µM. The compound also displayed a half-inhibitory concentration (IC50) against CNQX of more than 980 µM. The “receptor selectivity for mGluR1a” value at mGluR1a [1] (based on Table 3, criterion 5-fold more potent at mGluR1a) is given as “considered selective for mGluR1a”. In addition, the “displacement of [3H]glutamate binding” value at mGluR1a [6] is “did not displace”. The “effect on maximal response for glutamate” value on mGluR1a [7] is “dose-dependently decreased the maximal response for glutamate”. Moreover, the “effect on the potency of glutamate” value at mGluR1a [7] was “did not affect the potency of glutamate”. Further, the pharmacological profile result on mGluR1a [7] is “non-competitive antagonists”. The Emax on mGluR1a [7] (setting [10]) worked out at 2%; at mGluR1a [7] (setting [11]) it was 5%; on mGluR1a [7] (setting [12]), 35%; at mGluR1a [7] (setting [13]), 65%; at mGluR1a [7] (setting [14]) it was 92%; at mGluR1a [7] (setting [15]) it was 89%. Further, the Emax on mGluR1a [7] (read-out: response to glutamate relative to the maximal response evoked by 300 μM glutamate, antagonist 30 μM, glutamate 0) stood at 2%; on mGluR1a [7] (read-out: response to glutamate relative to the maximal response evoked by 300 μM glutamate, antagonist 30 μM, glutamate 3) it was 4%; on mGluR1a [7] (read-out: response to glutamate relative to the maximal response evoked by 300 μM glutamate, antagonist 30 μM, glutamate 10), 22%; at mGluR1a [7] (read-out: response to glutamate relative to the maximal response evoked by 300 μM glutamate, antagonist 30 μM, glutamate 30), 58%; at mGluR1a [7] (read-out: response to glutamate relative to the maximal response evoked by 300 μM glutamate, antagonist 30 μM, glutamate 100), 64%; on mGluR1a [7] (read-out: response to glutamate relative to the maximal response evoked by 300 μM glutamate, antagonist 30 μM, glutamate 300) it was 66%. In addition, the Emax at mGluR1a [7] (read-out: response to glutamate relative to the maximal response evoked by 300 μM glutamate, antagonist 100 μM, glutamate 0) was determined as 5%; on mGluR1a [7] (read-out: response to glutamate relative to the maximal response evoked by 300 μM glutamate, antagonist 100 μM, glutamate 3) it was 2%; on mGluR1a [7] (read-out: response to glutamate relative to the maximal response evoked by 300 μM glutamate, antagonist 100 μM, glutamate 10), 1%; on mGluR1a [7] (read-out: response to glutamate relative to the maximal response evoked by 300 μM glutamate, antagonist 100 μM, glutamate 30), 24%; at mGluR1a [7] (read-out: response to glutamate relative to the maximal response evoked by 300 μM glutamate, antagonist 100 μM, glutamate 100), 34%; on mGluR1a [7] (read-out: response to glutamate relative to the maximal response evoked by 300 μM glutamate, antagonist 100 μM, glutamate 300) it was 38%.

As to `Cn1c2ccccc2c2cc(C(=O)N3CCOCC3)sc21` [Compound 27, 8-Methyl-2-morpholinocarbonylthieno[2,3-b]indole], the half-maximal inhibitory concentration (IC50) against mGluR1a [1] stood at 5.3 µM.

Regarding `C=C(C)[C@H]1CN[C@H](C(=O)O)[C@H]1CC(=O)O` [kainate], in [5] (selective ionotropic glutamate receptor agonists), the “effect on metabotropic glutamate receptors” value is listed as “little effect”.

Compound `O=C(O)c1cc2c3ccccc3n(Cc3ccccc3)c2nc1N1CCOCC1` [Compound 3b, 9-Benzyl-2-morpholinopyridino[2,3-b]indole-3-carboxylic acid] registered a half-maximal inhibitory concentration (IC50) against mGluR1a [1] of 10 µM. Besides, at mGluR1a [6], the “displacement of [3H]glutamate binding” value was “did not displace”. Further, the “effect on maximal response for glutamate” value on mGluR1a [7] is reported as “dose-dependently decreased the maximal response for glutamate”. Also, the “effect on the potency of glutamate” value at mGluR1a [7] is recorded as “did not affect the potency of glutamate”. In addition, at mGluR1a [7], the pharmacological profile result is “non-competitive antagonists”. Besides, the Emax on mGluR1a [7] (setting [10]) is 2%; at mGluR1a [7] (setting [11]), 5%; at mGluR1a [7] (setting [12]), 16%; on mGluR1a [7] (setting [13]), 53%; at mGluR1a [7] (setting [14]), 75%; at mGluR1a [7] (setting [15]), 77%.

For `N[C@@]1(C(=O)O)CC[C@@H](C(=O)O)C1` [trans-ACPD, trans 1S,3R-1-aminocyclopentane-1,3-dicarboxylicacid], in the data set on nerve cell cultures, the “inhibition of NMDA induced neurotoxicity” value is recorded as “inhibit NMDA induced neurotoxicity”. In addition, the neuroprotection result in the data set with MCAO model in mice is reported as “neuroprotective”. Besides, the “effect on release of dopamine” value in data set [8] is on record as “increase release of dopamine”.

`N[C@@]1(C(=O)O)CC[C@@H](C(=O)O)C1` [(1S,3R)-ACPD]: the “effect on GABAA-mediated currents” value in the data set on GABAA is recorded as “attenuated”. The “effect on currents evoked by AMPA” value with currents evoked by AMPA is “potentiated”. The “effect on responses evoked by AMPA” value in data set [9] is “suppress responses evoked by the ionotropic glutamate receptor agonist, AMPA”.

On to `N[C@@H](CP(=O)(O)O)C(=O)O` [L-AP3, L-2-amino-3-phosphonopropionic acid], for which the “activity at metabotropic receptors” value in data set [5] is recorded as “partial agonist”. Also, the “antagonism of mGluR1/mGluR5” value in the data set with mGluR1/mGluR5 is recorded as “antagonist”.

Take `N[C@@H](CCC(=O)O)C(=O)O` [glutamate, L-glutamate]: in the data set on mGluR1α, the “increase over basal PI-hydrolysis” value is reported as 6-8 fold.

Regarding `NC(C(=O)O)c1cc(O)no1` (stereo not shown) [ibotenate], the “agonism on the metabotropic glutamate receptor” value in data set [5] is recorded as “non-selective agonists”.

With `N[C@H](C(=O)O)c1ccc(C(=O)O)cc1` [Compound S-4CPG, S-4-carboxyphenyl glycine], the “antagonism of trans ACPD stimulated phosphoinositide hydrolysis” value in [2] is listed as “antagonise trans ACPD stimulated phosphoinositide hydrolysis”.

`CN1CCN(C(=O)c2cc3c4ccccc4n(C)c3s2)CC1` [Compound 31, 8-Methyl-2-(4-methyl-1-piperazinylcarbonyl)thieno[2,3-b]indole]: the 50% inhibitory concentration (IC50) against mGluR1a [1] was determined as 36 µM. That is a double-digit micromolar value.

For the compound `N[C@H](C(=O)O)c1ccc(C(=O)O)c(O)c1` [Compound S-4C3HPG, S-4-carboxy-3-hydroxyphenyl glycine], in data set [2], the “antagonism of trans ACPD stimulated phosphoinositide hydrolysis” value was “antagonise trans ACPD stimulated phosphoinositide hydrolysis”.

Consider `Cn1c2ccc(Cl)cc2c2cc(C(=O)O)sc21` [Compound 54, 5-Chloro-8-methylthieno[2,3-b]indole-2-carboxylic acid], for which, at mGluR1a [1], the midpoint of inhibition, the IC50, lay at 7.2 µM.
